Test results as given in US11006631B2, “Substituted pyrimidinyloxy pyridine derivatives as herbicides” (FMC Corporation, priority 2015, dated 2021).

Columns and labels:
Assay type in all cases: in vivo
[1] = test system: lambsquarters (Chenopodium album); experiment: Test C postemergence, lambsquarters
Source text: (§1) Seeds of plant species selected from blackgrass (Alopecurus myosuroides), ryegrass, Italian (Italian ryegrass, Lolium multiflorum), wheat (winter wheat, Triticum aestivum), galium (catchweed bedstraw, Galium aparine), corn (Zea mays), crabgrass, large (large crabgrass, Digitaria sanguinalis), foxtail, giant (giant foxtail, Setaria faberii), lambsquarters (Chenopodium album), morningglory (Ipomoea coccinea), nutsedge, yellow (yellow nutsedge, Cyperus esculentus), pigweed (Amaranthus retroflexus), johnsongrass (Sorghum halepense), ragweed (common ragweed, Ambrosia elatior), soybean (Glycine max), barnyardgrass (Echinochloa crus-galli), oilseed rape (Brassica napus), waterhemp (common waterhemp, Amaranthus rudis), chickweed (common chickweed, Stellaria media), oat, wild (wild oat, Avena fatua), kochia (Kochia scoparia), and velvetleaf (Abutilon theophrasti) were planted in pots containing Redi-Earth® planting medium (Scotts Company, 14111 Scottslawn Road, Marysville, Ohio 43041) comprising spaghnum peat moss, vermiculite, wetting agent and starter nutrients and treated with postemergence applications of a test chemical formulated in a non-phytotoxic solvent mixture which included a surfactant. Plants ranged in height from 2 to 18 cm (1- to 4-leaf stage) for postemergence treatments. Treated plants and controls were maintained in a greenhouse for 13 to 15 days, after which time all species were compared to controls and visually evaluated. Plant response ratings, summarized in Table C, are based on a scale of 0 to 100 where 0 is no effect and 100 is complete control. A dash (-) response means no test result.

[2] = test system: pigweed (Amaranthus retroflexus); experiment: Test C postemergence, pigweed
Source text: as §1

[3] = test system: johnsongrass (Sorghum halepense); experiment: Test C postemergence, johnsongrass
Source text: as §1

[4] = test system: oat, wild (wild oat, Avena fatua); experiment: Test C postemergence, oat, wild
Source text: as §1

Compound: FC(F)c1cc(-c2ncccc2Oc2ncc(Cl)cn2)on1 [Compound 5, 5-chloro-2-[[2-[3-(difluoromethyl)-5-isoxazolyl]-3-pyridinyl]oxy]pyrimidine]
- Plant response rating, Lambsquarters ([1]; 16 g ai/ha): 35
- Plant response rating, Lambsquarters ([1]; 31 g ai/ha): 70
- Plant response rating, Lambsquarters ([1]; 62 g ai/ha): 55
- Plant response rating, Lambsquarters ([1]; 125 g ai/ha): 60
- Plant response rating, Pigweed ([2]; 16 g ai/ha): 65
- Plant response rating, Pigweed ([2]; 31 g ai/ha): 75
- Plant response rating, Pigweed ([2]; 62 g ai/ha): 75
- Plant response rating, Pigweed ([2]; 125 g ai/ha): 85
- Plant response rating, Johnsongrass ([3]; 16 g ai/ha): 0
- Plant response rating, Johnsongrass ([3]; 31 g ai/ha): 0
- Plant response rating, Johnsongrass ([3]; 62 g ai/ha): 5
- Plant response rating, Johnsongrass ([3]; 125 g ai/ha): 10
- Plant response rating, Oat, Wild ([4]; 16 g ai/ha): 0
- Plant response rating, Oat, Wild ([4]; 31 g ai/ha): 0
- Plant response rating, Oat, Wild ([4]; 62 g ai/ha): 0
- Plant response rating, Oat, Wild ([4]; 125 g ai/ha): 5
